Test results taken from US9200008B2 (ASKA PHARMACEUTICAL CO., LTD., priority 2010, dated 2015).

Test system: Human prostate cancer cell lines (PC-3 cells)
Test: Measurement of cell death-inducing activity (Test Example 1)
Type: cell-based
Conditions: PC-3, 48 h, 48 hours after addition, tested at 10, 1, 0.1, 0.025 and 0.00625 μmol/L, qualitative evaluation of 10 fields, read-out: Concentration showing the cell death-inducing activity (cell death-inducing rate not less than 40%)
Procedure, shortened: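 PC-3 cells seeded at 1×10^5 cells/well and grown 48 h at 37 °C, 5% CO2, then exposed to compound at 10, 1, 0.1, 0.025 and 0.00625 μmol/L (DMSO control) for a further 48 h. Activity was called where cell death-inducing rate was not less than 40%.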

Compound | minimal effective concentration
CCn1cc2ccc(COC(=O)Nc3cc(-c4ccc(Cl)cc4OC)nn3C)cc2n1 [Example 9-301] | 0.025 µM
COc1ccc(/C=N/NC(=O)c2sc(-c3cccc(F)c3)nc2C)cc1 [Example 23-66] | 1 µM
CCn1cnc2cc(COC(=O)Nc3cc(-c4ccccc4OC)nn3C)ccc21 [Example 9-215] | 0.1 µM
Cc1ccc(-c2cc(COC(=O)Nc3ccc4c(c3)nc3n4CCCC3)n(C)n2)c(C)c1 [Example 13-122] | 0.025 µM
CCc1nc(-c2ccc(C)cc2OC)sc1NC(=O)OCc1ccc2c(c1)ncn2CC [Example 9-165] | 0.00625 µM
CCn1nc(-c2ccc(Cl)cc2Cl)cc1NC(=O)OCc1ccc2c(c1)ncn2C [Example 9-208] | 0.025 µM
Cc1ccc(-c2nc(C)c(NC(=O)OCc3ccc4c(c3)nnn4C)s2)c(C)c1 [Example 9-17] | 0.025 µM
CCCCCCOc1ccc(/C=N/NC(=O)c2sc(-c3ccc(Cl)cc3)nc2C)cc1O [Example 23-105] | 10 µM
CCn1ncc2cc(NC(=O)OCc3cc(-c4ccc(Cl)cc4OC)nn3C)ccc21 [Example 13-129] | 0.025 µM
Cc1nc(-c2ccc(F)cc2F)sc1NC(=O)OCc1ccc2c(c1)ncn2C [Example 9-46] | 0.1 µM
COc1ccc(/C=N/NC(=O)c2sc(-c3cccc(Cl)c3Cl)nc2C)cc1O [Example 23-15] | 0.1 µM
CCn1cc2cc(COC(=O)Nc3sc(-c4ccc(F)cc4C)nc3C)ccc2n1 [Example 9-158] | 1 µM
COc1ccc(NC(=O)OCc2cc(-c3ccc(Cl)cc3OC)nn2C)cc1F [Example 13-71] | 1 µM
Cc1cc(F)ccc1-c1nc(C)c(NC(=O)OCc2ccc3c(c2)ncn3C)s1 [Example 9-48] | 0.00625 µM
Cc1cc(F)ccc1-c1nc(C)c(COC(=O)Nc2ccc3c(c2)nc2n3CCOC2)s1 [Example 13-25] | 0.025 µM
CCn1nc(-c2ccc(C)cc2C)cc1NC(=O)OCc1ccc2c(cnn2C)c1 [Example 9-286] | 0.1 µM
COc1ccccc1-c1cc(COC(=O)Nc2ccc3c(c2)nc2n3CCCC2)sn1 [Example 47-5] | 0.1 µM
COc1cc(Cl)ccc1-c1nc(C)c(COC(=O)Nc2ccc3nn(C)cc3c2)s1 [Example 13-46] | 10 µM
CCc1nc(-c2ccc(F)cc2C)sc1NC(=O)OCc1ccc2nn(CC)cc2c1 [Example 9-369] | 1 µM
Cn1nc(NC(=O)OCc2ccc3c(c2)ncn3C)cc1-c1ccccc1 [Example 9-306] | 10 µM
CCn1nc(-c2ccc(C)cc2OC)cc1COC(=O)Nc1ccc2c(c1)ncn2CC [Example 13-91] | 0.1 µM
Cc1cc(F)ccc1-c1nc(C)c(NC(=O)OCc2ccc3c(c2)nc(C)n3C)s1 [Example 9-80] | 0.1 µM
COc1ccccc1-c1nc(C)c(C(=O)N/N=C/c2ccc3c(c2)OCCN3C)s1 [Example 23-98] | 0.1 µM
CCn1nc(-c2ccccc2OC)cc1NC(=O)OCc1ccc2c(c1)nc1n2CCC1 [Example 9-255] | 1 µM
COc1cc(F)ccc1-c1cc(NC(=O)OCc2ccc3c(c2)nc2n3CCCC2)n(C)n1 [Example 9-265] | 1 µM
COc1cc(Cl)ccc1-c1cc(COC(=O)Nc2ccc3c(c2)ncn3C)n(C)n1 [Example 13-84] | 0.00625 µM
CCc1nc(-c2ccc(Cl)cc2OC)sc1NC(=O)OCc1ccc2c(c1)nc(C)n2C [Example 9-373] | 0.025 µM

Compound | minimal effective concentration
CCc1nc(-c2ccc(F)cc2C)sc1NC(=O)OCc1ccc2c(c1)ncn2C [Example 9-163] | 0.025 µM
CCn1nc(-c2ccc(F)cc2OC)cc1COC(=O)Nc1ccc2c(c1)ncn2C [Example 13-81] | 0.025 µM
CCn1cnc2cc(COC(=O)Nc3cc(-c4ccc(Cl)cc4OC)ns3)ccc21 [Example 45-3] | 10 µM
COc1cc(F)ccc1-c1nc(C)c(NC(=O)OCc2ccc3c(c2)nc2n3CCOC2)s1 [Example 9-92] | 0.00625 µM
Cc1cc(/C=N/NC(=O)c2sc(-c3ccc(Cl)cc3)nc2C(F)(F)F)cc(C)c1O [Example 23-19] | 10 µM
CCn1cnc2cc(NC(=O)OCc3cc(-c4ccccc4OC)nn3C)ccc21 [Example 13-78] | 0.1 µM
CCc1nc(-c2ccc(Cl)cc2C)sc1NC(=O)OCc1ccc2c(c1)nc1n2CCCC1 [Example 9-356] | 0.1 µM
CCc1ccccc1-c1nc(C)c(NC(=O)OCc2ccc3c(cnn3C)c2)s1 [Example 9-125] | 1 µM
Cc1cc(Cl)ccc1-c1nc(C)c(COC(=O)Nc2ccc3c(c2)nc2n3CCCC2)s1 [Example 13-35] | 0.025 µM
CCc1nc(-c2ccc(Cl)cc2)sc1C(=O)N/N=C/c1cc(C)c(O)c(C)c1 [Example 23-106] | 1 µM
COc1cc(C)ccc1-c1cc(NC(=O)OCc2ccc3c(c2)nc2n3CCOC2)sn1 [Example 45-1] | 10 µM
COc1ccc(/C=N/NC(=O)c2sc(-c3ccccc3OC)nc2C)cc1O [Example 23-14] | 0.1 µM
CCn1c(C)nc2cc(NC(=O)OCc3sc(-c4ccc(Cl)cc4C)nc3C)ccc21 [Example 13-21] | 0.1 µM
Cc1ccc(-c2cc(COC(=O)Nc3ccc4c(c3)ncn4C)nn2C)c(C)c1 [Example 13-141] | 10 µM
COc1cc(Cl)ccc1-c1cc(NC(=O)OCc2ccc3cn(C)nc3c2)n(C)n1 [Example 9-300] | 0.00625 µM
COc1cc(Cl)ccc1-c1cc(NC(=O)OCc2ccc3c(c2)nc2n3CCCC2)n(C)n1 [Example 9-267] | 0.025 µM
COc1cc(Cl)ccc1-c1nc(C)c(NC(=O)OCc2ccc3c(c2)nc2n3CCC(C)C2)s1 (stereo not drawn) [Example 9-120] | 0.1 µM
COc1cc(C)ccc1-c1nc(C)c(NC(=O)OCc2ccc3c(c2)nc2n3CCC2)s1 [Example 9-104] | 0.1 µM
COc1cc(/C=N/NC(=O)c2sc(-c3ccccc3Cl)nc2C)cc(O)c1OC [Example 23-5] | 10 µM
COc1cc(Cl)ccc1-c1cc(NC(=O)OCc2ccc3c(c2)ncn3C)sn1 [Example 45-2] | 1 µM
COc1ccc(/C=N/NC(=O)c2sc(-c3cccc(OC)c3C)nc2C)cc1O [Example 23-130] | 1 µM
COc1ccc(/C=N/NC(=O)c2sc(-c3ccc(C)cc3C)nc2C)cc1O [Example 23-44] | 0.1 µM
CCn1nc(-c2ccc(C)cc2C)cc1COC(=O)Nc1ccc2c(cnn2C)c1 [Example 13-132] | 1 µM
CCn1nc(-c2ccc(F)cc2OC)cc1NC(=O)OCc1ccc2c(cnn2C)c1 [Example 9-279] | 1 µM
CCc1nc(-c2ccc(Cl)cc2OC)sc1COC(=O)Nc1ccc2c(c1)ncn2C [Example 13-67] | 0.1 µM
Cc1cc(Cl)ccc1-c1nc(C)c(NC(=O)OCc2ccc3c(c2)nnn3C)s1 [Example 9-20] | 0.025 µM
Cc1nc(-c2ccc(Cl)cc2)sc1C(=O)N/N=C/c1ccc(O)c2ccccc12 [Example 23-110] | 1 µM
